Measured values published in US6758840B2, “Drug delivery device” (Metris Therapeutics Limited, priority 2000, dated 2004).

Tests used:
[1] = Plasma mefenamic acid after intra-vaginal wax-layer device, eight monkeys (Example 4); type: in vivo; details: average 6.4 mg mefenamic acid per device, mean of eight Rhesus monkeys
Procedure: Eight devices were prepared as described in Example 3. The devices were assayed and the average amount of mefenamic found to be in each device was 6.4 mg. Each device was inserted into the vagina of one of eight Rhesus monkeys. The monkeys all weighed in the range 7.27 kg to 8.95 kg.
Blood samples were taken from the Rhesus monkeys and the samples were assayed as described in Example 3, at the time intervals shown in the graph of FIG. 18. The results of this study are shown in the graph of FIG. 18, which indicates the concentration in ng/ml of mefenamic acid found in the plasma of the Rhesus monkeys with time following insertion of the devices of this example. Each point of the graph of FIG. 18 represents the mean value of the concentration of the eight monkeys.

[2] = Plasma mefenamic acid after intra-vaginal device with adhesive tape layer (Example 2); type: in vivo, Rhesus monkeys; details: intra-vaginal tampon device, double-sided adhesive tape as fluid-impermeable layer, mefenamic acid powder dusted on; Rhesus monkey plasma
Text: Devices according to the present invention were made and used to deliver a pharmaceutical agent intra-vaginally in Rhesus monkeys.
(§1) Materials used in the manufacture of commercial tampons for human use were reconstituted to produce tampons with dimensions 7 mm×25 mm or 5 mm×25 mm. Depending on the weight of an individual Rhesus monkey, one of these sizes of tampon was able to be conveniently inserted into the vagina of the Rhesus monkey.
A strip of double-sided adhesive tape was secured to the surface of the tampons to function as the fluid-impermeable layer. Mefenamic acid powder was “dusted” onto the surface of the tape and non-adherent mefenamic acid was removed.
(§2) Rhesus monkeys were anaesthetised with ketamine hydrochloride and one of the above-mentioned tampon devices was inserted into the vagina of each monkey. A 19 gauge catheter was inserted into the saphenous vein of each monkey. This catheter was used to collect blood samples during the course of the study. The monkeys were returned to their cages when appropriate.
(§3) Blood samples were taken at intervals and plasma was prepared and frozen. After the completion of the study, all plasma samples were assayed for the concentration of mefenamic acid.

[3] = Plasma mefenamic acid after intra-vaginal device with wax layer (Example 3); type: in vivo, Rhesus monkeys; details: intra-vaginal tampon device, wax fluid-impermeable layer, mefenamic acid dusted on; Rhesus monkey plasma
Text: Further devices according to the present invention were made and used to deliver a pharmaceutical agent intra-vaginally in Rhesus monkeys.
as §1
Wax material was used to create a fluid-impermeable layer of the tampons by warming the wax layer to make it adhere to the body of the tampon. Once the wax layer had been applied, mefenamic acid was “dusted” onto the device while the device was warmed to aid adhesion between the wax and the mefenamic acid. Non-adherent mefenamic acid was removed.
as §2, §3

[4] = Comparison of uptake of mefenamic acid from device and from slurry (Example 5); type: in vivo; details: Rhesus monkeys
Text: A comparison was made between the uptake of mefenamic acid in Rhesus monkeys where the mefenamic acid was introduced intra-vaginally using the devices of Example 3 and the uptake of mefenamic acid in Rhesus monkeys where a slurry comprising mefenamic acid was introduced intra-vaginally.
The slurry of mefenamic acid applied to a Rhesus monkey comprised a total amount of mefenamic acid that was greater than ten times that applied to a Rhesus monkey using the device of Example 3.
Blood samples were taken from the Rhesus monkeys and the samples were assayed as described in Example 3, at the time intervals shown in the graph of FIG. 19. The results of this study are shown in the graph of FIG. 19, which indicates the concentration in ng/ml of mefenamic acid found in the plasma of the Rhesus monkeys with time following insertion of the devices (circles) and slurry (triangles) of this example.

Cc1cccc(Nc2ccccc2C(=O)O)c1C [mefenamic acid]
transport across the vaginal mucosa / systemic circulation (plasma concentration, FIG. 18) [1]: mefenamic acid was transported across the vaginal mucosa and systemic circulation of mefenamic acid was achieved | transport across the vaginal mucosa / systemic circulation (plasma concentration, FIG. 16) [2]: mefenamic acid was transported across the vaginal mucosa and systemic circulation of mefenamic acid was achieved | transport across the vaginal mucosa / systemic circulation (plasma concentration, FIG. 17) [3]: mefenamic acid was transported across the vaginal mucosa and systemic circulation of mefenamic acid was achieved | uptake of mefenamic acid (plasma concentration, FIG. 19) ([4]; introduced intra-vaginally as slurry, total amount greater than ten times that of the device): only limited uptake of mefenamic acid by the monkeys was achieved | uptake of mefenamic acid (plasma concentration, FIG. 19) ([4]; introduced intra-vaginally using the device of Example 3 (wax layer)): transportation of mefenamic acid across the vaginal mucosa and systemic circulation of mefenamic acid in the Rhesus monkeys was achieved
